In PMC6017735, “Novel Semisynthetic Derivatives of Bile Acids as Effective Tyrosyl-DNA Phosphodiesterase 1 Inhibitors” (Molecules : A Journal of Synthetic Chemistry and Natural …, 2018):
Values joined by “and” are separate entries in the source; they are usually repeats but may differ in a detail not shown here. Identical values can stand only once. Like-named read-outs stand apart in the source and are kept apart here.

Experiments:
Tdp1 [1] = molecular target: T1, Tdp1 (Homo sapiens, UniProt Q9NUW8); experiment: Real-time detection of Tdp1 activity with FAM-BHQ1 oligonucleotide biosensor; format: biochemical
T1 construct: inferred from the pET 16B vector and the Ni-chelating resin) (N); made in house
T1 sequence (Q9NUW8 whole entry): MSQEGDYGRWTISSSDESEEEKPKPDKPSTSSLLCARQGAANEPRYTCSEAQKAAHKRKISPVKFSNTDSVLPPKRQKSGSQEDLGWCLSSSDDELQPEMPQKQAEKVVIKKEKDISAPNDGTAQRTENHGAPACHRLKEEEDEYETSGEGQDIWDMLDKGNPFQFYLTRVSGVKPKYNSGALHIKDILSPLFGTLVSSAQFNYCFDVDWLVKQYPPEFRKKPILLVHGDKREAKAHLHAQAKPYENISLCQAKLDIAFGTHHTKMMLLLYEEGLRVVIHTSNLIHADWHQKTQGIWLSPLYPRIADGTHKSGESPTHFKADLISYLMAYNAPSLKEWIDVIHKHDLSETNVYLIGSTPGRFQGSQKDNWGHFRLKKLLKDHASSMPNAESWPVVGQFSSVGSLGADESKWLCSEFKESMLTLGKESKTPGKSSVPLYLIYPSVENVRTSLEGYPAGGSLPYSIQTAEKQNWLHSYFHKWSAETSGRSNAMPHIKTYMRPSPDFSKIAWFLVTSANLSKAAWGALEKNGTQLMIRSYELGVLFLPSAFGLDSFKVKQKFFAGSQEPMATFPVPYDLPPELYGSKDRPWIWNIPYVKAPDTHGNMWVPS
Description: For testing, we used recently designed oligonucleotide biosensors for the real-time detection of Tdp1 activity based on the ability of Tdp1 to remove fluorophore quenchers from the 3′-end of DNA [27]. The hexadecameric oligonucleotide carried 5(6)-carboxyfluorescein (FAM) at the 5′-end and fluorophore quencher BHQ1 (Black Hole Quencher-1) at the 3′-end. Tdp1 inhibitors prevent the removal of fluorophore quenchers, thus reducing fluorescence intensity.
The recombinant Tdp1 was purified to homogeneity by chromatography on Ni-chelating resin and phosphocellulose P11 as described using the plasmid pET 16B-Tdp1 kindly provided by Dr. K.W. Caldecott (University of Sussex, United Kingdom).
Real-Time Detection of Tdp1 Activity. The Tdp1 activity measurements were carried out as described. Briefly, Tdp1-biosensor with a final concentration of 50 nM was incubated in a volume of 200 μL containing a Tdp1 buffer (50 mM Tris-HCl pH8.0, 50 mM NaCl, 7 mM β-mercaptoethanol) supplemented with purified 1.3 nM Tdp1 and various concentrations of the inhibitor in a 1.5% DMSO solution. Fluorescence measurements (Ex485/Em520 nm) were carried out during the linear phase of reaction (from 0 to 8 min) every 55 s. The reactions were incubated at a constant temperature of 26 °C in a POLARstar OPTIMA fluorimeter, BMG LABTECH, GmbH. The influence of compounds was evaluated by comparing the fluorescence increase rate in the presence of compounds to that of the DMSO control wells.

Tdp1 [2] = molecular target: T1, Tdp1; conditions: single- and double-stranded substrates of DNA; cited from earlier work
[3] = IC50 (concentration that inhibits the activity of the enzyme by 50%), samples synthesized by the authors, 50 nM biosensor, 1.3 nM Tdp1, 26 °C

SMILES	IC50 (Tdp1 [1]; [3])	further results
C[C@H](CCC(=O)Nc1ccccc1)[C@H]1CC[C@H]2[C@@H]3CC[C@@H]4C[C@H](O)CC[C@]4(C)[C@H]3C[C@H](O)[C@]12C [Compound 4b, N-Phenyl-3α,12α-dihydroxy-5β-cholan-24-amide]	6.7 ± 0.7 µM	
CC(=O)O[C@@H]1CC[C@@]2(C)[C@H](CC[C@@H]3[C@@H]2C[C@H](OC(C)=O)[C@]2(C)[C@@H]([C@H](C)CCC(=O)Nc4ccccc4)CC[C@@H]32)C1 [Compound 4a, N-Phenyl-3α,12α-diacetoxy-5β-cholan-24-amide]	0.43 ± 0.13 µM	
CC(=O)OC1CCC2(C)C(CCC3C2CC(O)C2(C)C(C(C)CCC(=O)NCCc4c[nH]c5ccccc45)CCC32)C1 (centres unmarked) [Compound 3d]	0.48 ± 0.04 µM	
CC(=O)OC1CC2C(CCC3CC(O)CCC32C)C2CCC(C(C)CCC(=O)NCCc3c[nH]c4ccccc34)C12C (centres unmarked) [Compound 3c]	0.95 ± 0.05 µM	
C[C@H](CCC(=O)Nc1cccnc1)[C@H]1CC[C@H]2[C@@H]3CC[C@@H]4C[C@H](O)CC[C@]4(C)[C@H]3C[C@H](O)[C@]12C [Compound 7b, N-(Pyridin-3-yl)-3α,12α-dihydroxy-5β-cholan-24-amide]	> 15 µM	
CC(=O)O[C@@H]1CC[C@@]2(C)[C@H](CC[C@@H]3[C@@H]2C[C@H](OC(C)=O)[C@]2(C)[C@@H]([C@H](C)CCC(=O)Nc4cccnc4)CC[C@@H]32)C1 [Compound 7a, N-(Pyridin-3-yl)-3α,12α-diacetoxy-5β-cholan-24-amide]	4.08 ± 0.08 µM	
CC(CCC(=O)NCCc1c[nH]c2ccccc12)C1CCC2C3C(O)CC4CC(O)CCC4(C)C3CCC12C (centres unmarked) [Compound 2b]	~2.6 µM and 2.6 µM	
Cc1ccc(NC(=O)CC[C@@H](C)[C@H]2CC[C@H]3[C@@H]4CC[C@@H]5C[C@H](O)CC[C@]5(C)[C@H]4C[C@H](O)[C@]23C)cc1 [Compound 6b, N-(p-Tolyl)-3α,12α-dihydroxy-5β-cholan-24-amide]	7.6 ± 3.9 µM	
CC(=O)O[C@@H]1CC[C@@]2(C)[C@H](CC[C@@H]3[C@@H]2C[C@H](OC(C)=O)[C@]2(C)[C@@H]([C@H](C)CCC(=O)NCCCN4CCOCC4)CC[C@@H]32)C1 [Compound 11a, N-(3′-Morpholinopropyl)-3α,12α-diacetoxy-5β-cholan-24-amide]	> 15 µM	
C[C@H](CCC(=O)Nc1ccc(Br)cc1)[C@H]1CC[C@H]2[C@@H]3CC[C@@H]4C[C@H](O)CC[C@]4(C)[C@H]3C[C@H](O)[C@]12C [Compound 5b, N-(4′-Bromophenyl)-3α,12α-dihydroxy-5β-cholan-24-amide]	1.3 ± 0.2 µM	
CC(=O)OC1CCC2(C)C(CCC3C2CC(OC(C)=O)C2(C)C(C(C)CCC(=O)NCCc4cc(C(C)(C)C)c(O)c(C(C)(C)C)c4)CCC32)C1 (stereo not drawn) [Compound 9a, N-(2′′-(3′,5′-Di-tret-buthyl-4′-hydroxyphenyl)-ethyl)-3α,12α-diacetoxy-5β-cholan-24-amide]	0.29 ± 0.12 µM	
CC(=O)O[C@@H]1CC[C@@]2(C)[C@H](CC[C@@H]3[C@@H]2C[C@H](OC(C)=O)[C@]2(C)[C@@H]([C@H](C)CCC(=O)Nc4ccc(C)cc4)CC[C@@H]32)C1 [Compound 6a, N-(p-Tolyl)-3α,12α-diacetoxy-5β-cholan-24-amide]	1 ± 0.05 µM	
CC(=O)OC1CCC2(C)C(C1)CC(OC(C)=O)C1C2CCC2(C)C(C(C)CCC(=O)NCCc3c[nH]c4ccccc34)CCC12 (centres unmarked) [Compound 2a]	0.38 ± 0.12 µM	
CCN(CC)CCCNC(=O)CC[C@@H](C)[C@H]1CCC2[C@@H]3CC[C@@H]4C[C@H](OC(C)=O)CC[C@]4(C)C3C[C@H](OC(C)=O)[C@@]21C (stereo partly drawn) [Compound 10a, N-(3′,3′-Diethylaminopropyl)-3α,12α-diacetoxy-5β-cholan-24-amide]	> 15 µM	
CC(=O)O[C@@H]1CC[C@@]2(C)[C@H](CC[C@@H]3[C@@H]2C[C@H](OC(C)=O)[C@]2(C)[C@@H]([C@H](C)CCC(=O)Nc4ccc(Br)cc4)CC[C@@H]32)C1 [Compound 5a, N-(4′-Bromophenyl)-3α,12α-diacetoxy-5β-cholan-24-amide]	0.42 ± 0.01 µM	
C[C@H](CCC(=O)NC12CC3CC(CC(C3)C1)C2)[C@H]1CCC2[C@@H]3CC[C@@H]4C[C@H](O)CC[C@]4(C)C3C[C@H](O)[C@@]21C (stereo partly drawn) [Compound 8b, N-(1′-Adamantyl)-3α,12α-dihidroxy-5β-cholan-24-amide]	2.3 ± 0.4 µM	
CC(CCC(=O)NCCc1c[nH]c2ccccc12)C1CCC2C3CCC4CC(O)CCC4(C)C3CC(O)C12C (centres unmarked) [Compound 3b]	2.7 ± 0.2 µM	
CC(=O)OC1CCC2(C)C(C1)CC(OC(C)=O)C1C2CCC2(C)C(C(C)CCC(=O)NCCc3c[nH]c4ccccc34)CCC12 (centres unmarked) [Compound 1a]	0.32 ± 0.11 µM	
CC(=O)O[C@@H]1CC[C@]2(C)C3C[C@H](OC(C)=O)[C@@]4(C)C(CC[C@@H]4[C@H](C)CCC(=O)NC45CC6CC(CC(C6)C4)C5)[C@@H]3CC[C@@H]2C1 (stereo partly drawn) [Compound 8a, N-(1′-Adamantyl)-3α,12α-diacetoxy-5β-cholan-24-amide]	0.47 ± 0.08 µM	
CC(=O)OC1CCC2(C)C(CCC3C2CC(OC(C)=O)C2(C)C(C(C)CCC(=O)NCCc4c[nH]c5ccccc45)CCC32)C1 (centres unmarked) [Compound 3a]	0.65 ± 0.16 µM	
N=C(N)c1ccc(-c2ccc(-c3ccc(C(=N)N)cc3)o2)cc1 [Fur, furamidine]		Tdp1 inhibition (Tdp1 [2]): low micromolar concentrations
CC(CCC(=O)NCCc1c[nH]c2ccccc12)C1CCC2C3C(O)CC4CC(O)CCC4(C)C3CCC12C (centres unmarked) [Compound 1b]	2.65 ± 0.3 µM	IC50 (Tdp1 [1]; commercial sample of compound 1b (virtual screening hit), read-out: IC50): 0.3 µM
